Laboratory results as given in ChEMBL document CHEMBL1151820, “Antagonists of the P2X(7) receptor. From lead identification to drug development” (J Med Chem, 2009).

target: T1, P2X purinoceptor 7 (Homo sapiens, UniProt Q99572); test: Antagonist activity at P2X7 receptor in human THP1 cells assessed as inhibition of BzATP-induced ethidium uptake; type: functional, cell-based, THP-1; details: not given
T1 sequence (Q99572 whole entry): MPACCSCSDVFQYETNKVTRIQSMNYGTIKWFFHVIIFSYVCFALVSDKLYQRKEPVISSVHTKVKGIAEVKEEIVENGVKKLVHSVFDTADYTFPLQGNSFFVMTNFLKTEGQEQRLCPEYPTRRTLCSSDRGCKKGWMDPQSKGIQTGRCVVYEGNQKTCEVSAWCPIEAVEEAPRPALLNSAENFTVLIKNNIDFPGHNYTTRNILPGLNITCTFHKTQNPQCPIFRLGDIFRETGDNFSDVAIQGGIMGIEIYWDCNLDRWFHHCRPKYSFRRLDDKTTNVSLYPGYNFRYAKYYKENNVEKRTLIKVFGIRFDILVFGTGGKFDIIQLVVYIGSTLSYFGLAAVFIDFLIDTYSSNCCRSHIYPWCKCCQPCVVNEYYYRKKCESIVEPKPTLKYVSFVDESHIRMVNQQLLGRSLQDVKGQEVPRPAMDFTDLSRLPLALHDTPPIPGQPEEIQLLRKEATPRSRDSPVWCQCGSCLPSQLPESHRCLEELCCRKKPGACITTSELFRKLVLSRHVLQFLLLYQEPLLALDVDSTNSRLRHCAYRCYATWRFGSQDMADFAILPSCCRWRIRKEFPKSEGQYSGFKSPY

Compound | IC50 [nM]
CNC[C@@H](O)Cc1ccc(Cl)c(C(=O)NCC23CC4CC(CC(C4)C2)C3)c1 | 10
Clc1cccc(-c2nnnn2Cc2c(Cl)cccc2Cl)c1Cl | 126
O=C(Cc1cccc(C(F)(F)F)c1F)Nc1c(Cl)ccc2c(=O)n(C3CC3)ccc12 | 0.316
CS(=O)(=O)NC(=O)NCCCc1ccc2c(C(=O)NCC3CCCCC3)c(Cl)ccc2n1 | 501
O=C(CC12CC3CC(CC(C3)C1)C2)Nc1c(Cl)ccc2nc(CN3CCN(CCO)CC3)ccc12 | 20
O=C(CC12CC3CC(CC(C3)C1)C2)Nc1cccc2nc(NCCCO)ccc12 | 7.94
CCS(=O)(=O)N1CCc2c(ccc(C)c2NC(=O)Cc2ccc(C(F)(F)F)c(F)c2)C1 | 25.1
Cc1ccc2nc(CCNCCCO)ccc2c1NC(=O)CC12CC3CC(CC(C3)C1)C2 | 15.8
CCCCC(CC)CNC(=O)c1cc(-n2ncc(=O)[nH]c2=O)ccc1Cl (centres undefined) | 794
CN(CCO)CCc1cc(C(=O)NCC23CC4CC(CC(C4)C2)C3)c(Cl)cn1 | 15.8
Cc1ccc2c(NC(=O)C[C@H](C)c3ccccc3)c(Cl)ccc2n1 | 316
C[C@@H](C(N)=O)n1ccc2c(NC(=O)CC34CC5CC(CC(C5)C3)C4)c(Cl)ccc2c1=O | 0.0794
O=C(NCC12CC3CC(CC(C3)C1)C2)c1cc(-n2ncc(=O)[nH]c2=O)ccc1Cl | 50.1
COC(=O)NC(CCc1ccncc1)COc1ccc(-c2cccc([N+](=O)[O-])c2)cc1 (centres undefined) | > 10000
O=C(CC1CCCCC1)Nc1c(Cl)ccc2nc(NCCCO)ccc12 | 25.1
O=C(Cc1ccc(C(F)(F)F)c(F)c1)Nc1cccc2c1CCN(C(=O)[C@H]1CCCN1)C2 | 79.4
O=C(CC1CCCCCC1)Nc1cccc2c(=O)n([C@H]3CCNC3)ccc12 | 3.16
O=C(NCC1(O)CCCCC1)c1cc(-n2ncc(=O)[nH]c2=O)ccc1Cl | 398
O=C(NC12CC3CC(CC(C3)C1)C2)c1ccccc1Cl | > 10000
COC(=O)N(C)C(CCc1ccncc1)COc1ccc(-c2cccc([N+](=O)[O-])c2)cc1 (centres undefined) | > 10000
CC(=O)NC(CCc1ccncc1)COc1ccc(-c2cccc([N+](=O)[O-])c2)cc1 (centres undefined) | > 10000
CC(C)C(CO)n1ccc2c(NC(=O)CC34CC5CC(CC(C5)C3)C4)cccc2c1=O (centres undefined) | 0.0501
O=C(NCC12CC3CC(CC(C3)C1)C2)c1ccc(Cl)cc1 | > 10000
O=C(Cc1ccc(F)c(C(F)(F)F)c1)Nc1cccc2c(=O)n([C@@H]3CNC[C@H]3O)ccc12 | 2.51

same assay, conditions: read-out: pA2 (converted)

Compound | Kb [nM]
Cc1ccccc1NC(=O)CC12CC3CC(CC(C3)C1)C2 | 158
COc1ccc(Cl)c(C(=O)NCC23CC4CC(CC(C4)C2)C3)c1 | 1.58

same assay, conditions: thp-1

Compound | pIC50
O=C(NCC12CC3CC(CC(C3)C1)C2)c1cc(N2CCNCC2)ncc1Cl | > 5
NC1CCN(c2nccc(C(=O)NCC34CC5CC(CC(C5)C3)C4)c2Cl)CC1 | > 5
O=C(O)CNCCNc1ccc(Cl)c(C(=O)NCC23CC4CC(CC(C4)C2)C3)c1 | > 5
CC(C)NC(=O)c1cnc(N2CCC(N3C(=O)OCc4ccccc43)CC2)c(Cl)c1 | >= 4.5
CC(CO)NC(=O)c1cnc(N2CCC(N3C(=O)OCc4ccccc43)CC2)nc1C(F)(F)F (centres undefined) | >= 4.5
Cc1cccc(C)c1NC(=O)CN1CC2CCC(C1)N2c1ncnc2sccc12 | >= 5
C[C@@H]1CN(CC(=O)Nc2cccc3ncccc23)CCN1S(=O)(=O)c1ccc(S(C)(=O)=O)cc1 | >= 5
O=C(NCC12CC3CC(CC(C3)C1)C2)c1cc(OC2CCNCC2)ncc1Cl | > 5
CN(C(=O)c1ccc(N2CCC(N3C(=O)OCc4ccccc43)CC2)c([N+](=O)[O-])c1)C1CCCCC1 | >= 4.5
O=C(NCC12CC3CC(CC(C3)C1)C2)c1ccnc(N2CCNCC2)c1Cl | > 5
O=C(NCC12CC3CC(CC(C3)C1)C2)c1cc(OCCCNCCCO)ccc1Cl | > 5
O=C(CNc1ccc(F)c(F)c1)Nc1cc(OC2CCNCC2)ccc1Cl | > 4.5
O=C(NCC12CC3CC(CC(C3)C1)C2)c1ccnc(NCC2CCNCC2)c1Cl | > 5
O=C(NCC12CC3CC(CC(C3)C1)C2)c1cc(CCCNCCc2cnc[nH]2)ccc1Cl | > 5

target: T1, P2X purinoceptor 7; test: Antagonist activity at human P2X7 receptor expressed in human U373 cells assessed as inhibition of BzATP-induced Yo-Pro uptake; type: functional, cell-based, U-373MG ATCC; details: not given

Compound | IC50 [nM]
c1ccc(CCCCC2=N[C@H](c3ccccc3)[C@H](c3ccccc3)N2)cc1 | 631
Fc1cccc(CNC2=N[C@@H](c3ccccc3Cl)[C@@H](c3ccccc3Cl)N2)c1 | 398
CC(CC1=N[C@H](c2ccccc2)[C@H](c2ccccc2)N1)c1ccccc1 (some centres undefined) | 31.6
C[C@@]1(c2cccc(F)c2)N=C(NCc2cccc(F)c2)N[C@@H]1c1cccc(F)c1 | 39.8
Cc1ccccc1CCC1=N[C@H](c2ccccc2)[C@H](c2ccccc2)N1 | 63.1
c1ccc(CCCC2=N[C@H](c3ccccc3)[C@H](c3ccccc3)N2)cc1 | 501
Fc1cccc(CNC2=N[C@@H](c3ccccc3)[C@@H](c3ccccc3)N2)c1 | 100
CC(C)(CC1=N[C@H](c2ccccc2)[C@H](c2ccccc2)N1)c1ccccc1 | 10
c1ccc(CCC2=N[C@H](c3ccccc3)[C@H](c3ccccc3)N2)cc1 | 79.4
Cc1ccccc1CC1=N[C@H](c2ccccc2)[C@H](c2ccccc2)N1 | 316
Fc1ccc(CC2=N[C@H](c3ccccc3)[C@H](c3ccccc3)N2)cc1 | 79.4
Fc1cccc(COC2=N[C@H](c3ccccc3)[C@H](c3ccccc3)N2)c1 | 200
Fc1cccc(CC2=N[C@H](c3ccccc3)[C@H](c3ccccc3)N2)c1 | 79.4
c1ccc([C@H]2N=C(C3Cc4ccccc4C3)N[C@H]2c2ccccc2)cc1 | 31.6
c1ccc(C2=N[C@@H](c3ccccc3)[C@@H](c3ccccc3)N2)cc1 | 3980
Fc1cccc(CSC2=N[C@@H](c3ccccc3)[C@@H](c3ccccc3)N2)c1 | 200

target: T2, P2X purinoceptor 7 (Homo sapiens) (UniProt Q99572); details: HEK293, at 3 µM
T2 sequence (whole entry): T1 sequence (Q99572 whole entry)

Compound | inhibition [%]
CC(C)(C)OC(=O)N1CCN(C(=O)[C@H](Cc2ccc(OS(=O)(=O)c3cccc4cccnc34)cc2)NC(=O)c2ccccc2)CC1 | 13
CC(C)(C)OC(=O)N1CCN(C(=O)[C@H](Cc2ccc(OS(C)(=O)=O)cc2)NC(=O)OCc2ccccc2)CC1 | < 10
O=C(N[C@@H](Cc1ccc(OS(=O)(=O)c2ccccc2)cc1)C(=O)N1CCN(S(=O)(=O)c2ccccc2)CC1)OCc1ccccc1 | < 10
CCOC(=O)N[C@@H](Cc1ccc(OS(=O)(=O)c2cccc3cccnc23)cc1)C(=O)N1CCN(C(=O)OC(C)(C)C)CC1 | < 10
CC(C)(C)OC(=O)N1CCN(C(=O)[C@H](Cc2ccc(OS(=O)(=O)c3cccc4cccnc34)cc2)NS(=O)(=O)c2cccc3cccnc23)CC1 | 61
CC(C)(C)OC(=O)N1CCN(C(=O)[C@H](Cc2ccc(OC(=O)OCc3ccccc3)cc2)NC(=O)OCc2ccccc2)CC1 | < 10
CCC(=O)Oc1ccc(C[C@H](NC(=O)OCc2ccccc2)C(=O)N2CCN(C(=O)OC(C)(C)C)CC2)cc1 | < 10
CC(C)(C)OC(=O)N1CCN(C(=O)[C@H](Cc2ccc(OS(=O)(=O)c3cccc4cnccc34)cc2)NC(=O)OCc2ccccc2)CC1 | 43
CC(C)(C)OC(=O)N1CCN(C(=O)[C@H](Cc2ccc(OS(=O)(=O)c3cccc4cccnc34)cc2)NS(=O)(=O)c2cccc3cnccc23)CC1 | 37
CC(C)(C)OC(=O)N1CCN(C(=O)[C@@H](N)Cc2ccc(OS(=O)(=O)c3cccc4cccnc34)cc2)CC1 | < 10
CC(C)(C)OC(=O)N1CCN(C(=O)[C@H](Cc2ccc(O)cc2)NC(=O)OCc2ccccc2)CC1 | < 10
CC(C)(C)OC(=O)N1CCN(C(=O)[C@H](Cc2ccc(OS(=O)(=O)c3ccccc3)cc2)NC(=O)OCc2ccccc2)CC1 | 59
COc1ccc(S(=O)(=O)Oc2ccc(C[C@H](NC(=O)OCc3ccccc3)C(=O)N3CCN(C(=O)OC(C)(C)C)CC3)cc2)cc1 | 62
CC(C)(C)OC(=O)N1CCN(C(=O)[C@H](Cc2ccc(OS(=O)(=O)c3cccc4cccnc34)cc2)NC(=O)OCc2ccccc2)CC1 | 53
Cc1ccc(S(=O)(=O)Oc2ccc(C[C@H](NC(=O)OCc3ccccc3)C(=O)N3CCN(C(=O)OC(C)(C)C)CC3)cc2)cc1 | 71
CC(C)(C)OC(=O)N1CCN(C(=O)[C@H](Cc2ccc(OS(=O)(=O)c3cccc4cccnc34)cc2)NS(C)(=O)=O)CC1 | < 10
O=C(N[C@@H](Cc1ccc(OS(=O)(=O)c2ccccc2)cc1)C(=O)N1CCN(C(=O)c2ccccc2)CC1)OCc1ccccc1 | 78
CC(C)(C)OC(=O)N1CCN(C(=O)[C@H](Cc2ccc(OC(=O)c3ccccc3)cc2)NC(=O)OCc2ccccc2)CC1 | 47
Cc1ccc(S(=O)(=O)N[C@@H](Cc2ccc(OS(=O)(=O)c3cccc4cccnc34)cc2)C(=O)N2CCN(C(=O)OC(C)(C)C)CC2)cc1 | 32
CCC(=O)N1CCN(C(=O)[C@H](Cc2ccc(OS(=O)(=O)c3ccccc3)cc2)NC(=O)OCc2ccccc2)CC1 | < 10
O=C(N[C@@H](Cc1ccc(OS(=O)(=O)c2ccccc2)cc1)C(=O)N1CCN(C(=O)OCc2ccccc2)CC1)OCc1ccccc1 | 48
CC(C)(C)OC(=O)N1CCN(C(=O)[C@H](Cc2ccc(OS(=O)(=O)c3cccc4cccnc34)cc2)NS(=O)(=O)c2ccccc2)CC1 | < 10
CCOC(=O)Oc1ccc(C[C@H](NC(=O)OCc2ccccc2)C(=O)N2CCN(C(=O)OC(C)(C)C)CC2)cc1 | < 10
